≈ marks a conversion by molar mass, not a printed value. Where “and” joins values, the source holds several entries; their conditions need not be identical. Equal entries are not always repeated. Where two headings read alike, the source gives them in different places.
Key:
Providencia stuartii = experiment: antimicrobial spectrum, agar dilution MIC; type: cell-based; settings: strain CMX 640, BHI agar, 20-24 hours
Protocol: (§1) Twelve petri dishes containing successive aqueous dilutions of the test compound mixed with 10 ml of sterilized Brain Heart Infusion agar (Difco 0418-01-5) are prepared. Each plate is inoculated with 1:100 (or 1:10 for slow-growing strains, primarily Micrococcus and Streptococcus) dilutions of up to 32 different microorganisms, using a Steers replicator block. The inoculated plates are incubated at 35°-37° C. for 20-24 hours. In addition, a control plate, using BHI agar containing no test compound, is prepared and incubated at the beginning and end of each test.
(§2) An additional plate containing a compound having known susceptibility patterns for the organisms being tested and belonging to the same antibiotic class as the test compound is also prepared and incubated as a further control, as well as to provide test-to-test comparability.
(§3) After incubation, each disk is read. The MIC is defined as the lowest concentration of drug yielding no growth, a slight haze, or sparsely isolated colonies on the inoculum spot as compared to the growth control.

Pseudomonas aeruginosa = experiment: antimicrobial spectrum, agar dilution MIC; type: cell-based; settings: BHI agar, 20-24 hours
Protocol: as §1, §2, §3

Staph. aureus = experiment: antimicrobial spectrum, agar dilution MIC; type: cell-based; settings: Staphylococcus aureus, BHI agar, 20-24 hours
Protocol: as §1, §2, §3

Staph. epidermidis = experiment: antimicrobial spectrum, agar dilution MIC; type: cell-based; settings: Staphylococcus epidermidis, BHI agar, 20-24 hours
Protocol: as §1, §2, §3

Strep. agalactiae = experiment: antimicrobial spectrum, agar dilution MIC; type: cell-based; settings: Streptococcus agalactiae; strain CMX 633; BHI agar, 20-24 hours; read-out: MIC
Protocol: as §1, §2, §3

Strep. bovis = experiment: antimicrobial spectrum, agar dilution MIC; type: cell-based; settings: Streptococcus equinus, strain A5169; BHI agar, 20-24 hours; read-out: MIC
Protocol: as §1, §2, §3

Strep. faecalis = experiment: antimicrobial spectrum, agar dilution MIC; type: cell-based; settings: Enterococcus faecalis, BHI agar, 20-24 hours
Protocol: as §1, §2, §3

Strep. faecium = experiment: antimicrobial spectrum, agar dilution MIC; type: cell-based; settings: Enterococcus faecium, BHI agar, 20-24 hours
Protocol: as §1, §2, §3

Strep. pneumoniae = experiment: antimicrobial spectrum, agar dilution MIC; type: cell-based; settings: Streptococcus pneumoniae, BHI agar, 20-24 hours
Protocol: as §1, §2, §3

Strep. pyogenes = experiment: antimicrobial spectrum, agar dilution MIC; type: cell-based; settings: BHI agar, 20-24 hours
Protocol: as §1, §2, §3

Micrococcus luteus = experiment: antimicrobial spectrum, agar dilution MIC; type: cell-based; settings: strain 4698, BHI agar, 20-24 hours
Ent. aerogenes = experiment: antimicrobial spectrum, agar dilution MIC; type: cell-based
Klebsiella pneumoniae = experiment: antimicrobial spectrum, agar dilution MIC; type: cell-based; settings: strain 8045, BHI agar, 20-24 hours
Pseudomonas cepacia = experiment: antimicrobial spectrum, agar dilution MIC; type: cell-based; settings: strain 2961, BHI agar, 20-24 hours
Protocol: Erythromycin A was used for this purpose.
After incubation, each disk is read.

Staph. saprophyticus = experiment: microbe, parasite or virus in culture; settings: Staphylococcus saprophyticus, ATCC15305
Protocol: as §1, §2, §3

Staph. aureus NCTC 10649 = experiment: acute mouse protection test; settings: for ED50: Staphylococcus aureus, NCTC10649, in Mus musculus, 168 h, dosed 1 and 5 hours post-infection, observed 7 days; for # Died: ten mice
Protocol: The acute mouse protection test is conducted on ten mice with each of three levels of drug.
The acute mouse protection test is conducted on female, Swiss albino mice, 18-20 grams in weight. The mice are injected intraperitoneally with an 18-hour culture of the indicated test organism diluted sufficiently to provide the desired LD50 value. To check the potency of the inoculum, a titration of the indicated test organism is carried out in control animals. […] The ED50 values are calculated using the mortality data collected.

With CC[C@H]1OC(=O)[C@H](C)[C@@H](O[C@H]2C[C@@](C)(OC)[C@@H](O)[C@H](C)O2)[C@H](C)[C@@H](O[C@@H]2O[C@H](C)C[C@H](N(C)C)[C@H]2O)[C@](C)(O)C[C@@H](C)C(=O)[C@H](C)[C@@H](O)[C@]1(C)O [Erythromycin A] the MIC (Providencia stuartii) was > 100 µg/mL, the MIC (Providencia stuartii; read-out: MIC) was > 200 µg/mL and the MIC (Pseudomonas aeruginosa; Pseudomonas aeruginosa, strain 5007) was 200 µg/mL (≈ 273 µM). It also gave an MIC (Pseudomonas aeruginosa; Pseudomonas aeruginosa, strain BMH10) of 100 µg/mL (≈ 136 µM), an MIC (Pseudomonas aeruginosa; Pseudomonas aeruginosa, strain K799/61) of 1.56 µg/mL (≈ 2.13 µM) and an MIC (Pseudomonas aeruginosa; Pseudomonas aeruginosa, strain K799/WT) of 200 µg/mL (≈ 273 µM). The MIC (Pseudomonas aeruginosa; strain 5007) was > 100 µg/mL, the MIC (Pseudomonas aeruginosa; strain K799/WT) was > 100 µg/mL and 100 µg/mL and the MIC (Staph. aureus; ATCC6538P, strain ATCC 6538P, read-out: MIC) was 0.12 µg/mL (≈ 0.164 µM). For the same compound, the MIC (Staph. aureus; ATCC25923, strain ATCC 25923, read-out: MIC) was 0.06 µg/mL (≈ 0.0818 µM), the MIC (Staph. aureus; NCTC10649, strain NCTC 10649, read-out: MIC) was 0.06 µg/mL (≈ 0.0818 µM) and the MIC (Staph. aureus; strain 45 RAR 2) was 0.2 µg/mL (≈ 0.273 µM). It also gave an MIC (Staph. aureus; strain 642A, read-out: MIC) of 0.12 µg/mL (≈ 0.164 µM), an MIC (Staph. aureus; strain A5177, read-out: MIC) of 0.78 µg/mL (≈ 1.06 µM) and an MIC (Staph. aureus; strain CMX 686B, read-out: MIC) of 0.12 µg/mL (≈ 0.164 µM). For the same compound, the MIC (Staph. aureus; strain CMX 705, read-out: MIC) was 0.06 µg/mL (≈ 0.0818 µM), the MIC (Staph. aureus; strain CMX 730A, read-out: MIC) was 0.06 µg/mL (≈ 0.0818 µM) and the MIC (Staph. aureus; strain CMX 739A, read-out: MIC) was 0.06 µg/mL (≈ 0.0818 µM). It also gave an MIC (Staph. aureus; strain GYR 1150, read-out: MIC) of 0.06 µg/mL (≈ 0.0818 µM), an MIC (Staph. aureus; strain GYR 1162, read-out: MIC) of 0.06 µg/mL (≈ 0.0818 µM) and an MIC (Staph. epidermidis; strain 3519, read-out: MIC) of 0.21 µg/mL (≈ 0.286 µM). It also gave an MIC (Staph. epidermidis; strain 3519 RARI) of 0.2 µg/mL (≈ 0.273 µM), an MIC (Staph. epidermidis; strain CMX 728, read-out: MIC) of 0.06 µg/mL (≈ 0.0818 µM) and an MIC (Staph. epidermidis; strain GYR 1151, read-out: MIC) of 0.12 µg/mL (≈ 0.164 µM). For the same compound, the MIC (Strep. agalactiae) was 0.015 µg/mL (≈ 0.0204 µM), the MIC (Strep. bovis) was 0.01 µg/mL (≈ 0.0136 µM) and the MIC (Strep. faecalis; strain CMX 663F) was 2 µg/mL (≈ 2.73 µM). The MIC (Strep. faecalis; strain CMX 729G) was 0.5 µg/mL (≈ 0.681 µM), the MIC (Strep. faecalis; strain CMX 736F) was 0.5 µg/mL (≈ 0.681 µM) and the MIC (Strep. faecalis; strain GYR 1164) was 0.5 µg/mL (≈ 0.681 µM). It also gave an MIC (Strep. faecalis; strain GYR 1166) of 0.5 µg/mL (≈ 0.681 µM), an MIC (Strep. faecalis; strain GYR 1167) of 4 µg/mL (≈ 5.45 µM) and an MIC (Strep. faecium; ATCC8043, strain ATCC 8043) of 0.1 µg/mL (≈ 0.136 µM). For the same compound, the MIC (Strep. faecium; ATCC8043, strain ATCC 8043, read-out: MIC) was 0.06 µg/mL (≈ 0.0818 µM), the MIC (Strep. pneumoniae; strain 78-008107) was 32 µg/mL (≈ 43.6 µM) and the MIC (Strep. pneumoniae; strain CMX 635, read-out: MIC) was 0.015 µg/mL (≈ 0.0204 µM). For the same compound, the MIC (Strep. pneumoniae; strain CMX 698, read-out: MIC) was 0.008 µg/mL (≈ 0.0109 µM), the MIC (Strep. pyogenes; Streptococcus pyogenes, strain 930, read-out: MIC) was > 200 µg/mL and the MIC (Strep. pyogenes; Streptococcus pyogenes, strain C203, read-out: MIC) was 0.002 µg/mL (≈ 0.00273 µM). For the same compound, the MIC (Strep. pyogenes; Streptococcus pyogenes, strain EES61, read-out: MIC) was 0.06 µg/mL (≈ 0.0818 µM), the MIC (Strep. pyogenes; Streptococcus pyogenes, strain M79061-98) was 1 µg/mL (≈ 1.36 µM) and the MIC (Strep. pyogenes; Streptococcus pyogenes, strain M79061-139, read-out: MIC) was 0.015 µg/mL (≈ 0.0204 µM). For the same compound, the MIC (Strep. pyogenes; Streptococcus pyogenes, strain M79061-140, read-out: MIC) was 0.008 µg/mL (≈ 0.0109 µM), the MIC (Strep. pyogenes; strain 930) was > 100 µg/mL and the MIC (Micrococcus luteus) was 0.1 µg/mL (≈ 0.136 µM). It also gave an MIC (Ent. aerogenes; Klebsiella aerogenes, ATCC10348) of 100 µg/mL (≈ 136 µM), an MIC (Ent. aerogenes; Klebsiella aerogenes, ATCC13048, strain ATCC 13048, BHI agar, 20-24 hours, read-out: MIC) of 50 µg/mL (≈ 68.1 µM) and an MIC (Ent. aerogenes; strain ATCC 10348, BHI agar, 20-24 hours) of 50 µg/mL (≈ 68.1 µM). The MIC (Klebsiella pneumoniae) was 50 µg/mL (≈ 68.1 µM), the MIC (Pseudomonas cepacia; Burkholderia cepacia, read-out: MIC) was 200 µg/mL (≈ 273 µM) and the MIC (Pseudomonas cepacia) was > 100 µg/mL. It also gave an MIC (Staph. saprophyticus) of 0.03 µg/mL (≈ 0.0409 µM), an ED50 (Staph. aureus NCTC 10649; po, dosage medium Carboxymethylcellulose) of 48.8 mg/kg and an ED50 (Staph. aureus NCTC 10649; po, dosage medium PBS) of 75.7 mg/kg. For the same compound, the ED50 (Staph. aureus NCTC 10649; sc, subcutaneous, dosage medium Injectable solution) was 10.9 mg/kg, the “# Died” value (Staph. aureus NCTC 10649; oral, Carboxymethylcellulose, 15.6 mg/kg) was 8 and the “# Died” value (Staph. aureus NCTC 10649; oral, Carboxymethylcellulose, 37.5 mg/kg) was 5. For the same compound, the “# Died” value (Staph. aureus NCTC 10649; oral, Carboxymethylcellulose, 250.0 mg/kg) was 0, the “# Died” value (Staph. aureus NCTC 10649; oral, PBS, 15.6 mg/kg) was 10 and the “# Died” value (Staph. aureus NCTC 10649; oral, PBS, 37.5 mg/kg) was 4. The “# Died” value (Staph. aureus NCTC 10649; oral, PBS, 250.0 mg/kg) was 0, the “# Died” value (Staph. aureus NCTC 10649; subcutaneous, Injectable solution, 2.5 mg/kg) was 10 and the “# Died” value (Staph. aureus NCTC 10649; subcutaneous, Injectable solution, 10.0 mg/kg) was 6. The “# Died” value (Staph. aureus NCTC 10649; subcutaneous, Injectable solution, 40.0 mg/kg) was 0.

Reference: patent publication US4742049A, “Semisynthetic erythromycin antibiotics” (Abbott Laboratories, priority 1986, dated 1988)
